According to ChEMBL document CHEMBL3046407, “Toxicity of monoterpenes against larvae and adults of Colorado potato beetle, Leptinotarsa decemlineata Say (Coleoptera: Chrysomelidae)” (2007):

How the values were obtained:
[1] = tested on: Leptinotarsa decemlineata; assay: Insecticidal activity against first-instar larval stage of Leptinotarsa decemlineata infested potato leaves assessed as mortality at 20 mg after 96 hr relative to control; type: functional
[2] = tested on: Leptinotarsa decemlineata; assay: Insecticidal activity against third-instar larval stage of Leptinotarsa decemlineata infested potato leaves assessed as mortality at 20 mg after 24 hr relative to control; type: functional
[3] = tested on: Leptinotarsa decemlineata; assay: Insecticidal activity against first-instar larval stage of Leptinotarsa decemlineata infested potato leaves assessed as mortality at 20 mg after 12 hr relative to control; type: functional
[4] = tested on: Leptinotarsa decemlineata; assay: Insecticidal activity against adult Leptinotarsa decemlineata infested potato leaves assessed as mortality at 10 mg after 96 hr relative to control; type: functional
[5] = tested on: Leptinotarsa decemlineata; assay: Insecticidal activity against third-instar larval stage of Leptinotarsa decemlineata infested potato leaves assessed as mortality at 20 mg after 12 hr relative to control; type: functional
[6] = tested on: Leptinotarsa decemlineata; assay: Insecticidal activity against adult Leptinotarsa decemlineata infested potato leaves assessed as mortality at 20 mg after 24 hr relative to control; type: functional
[7] = tested on: Leptinotarsa decemlineata; type: functional, Instar larval stage
[8] = tested on: Leptinotarsa decemlineata; assay: Insecticidal activity against adult Leptinotarsa decemlineata infested potato leaves assessed as mortality at 20 mg after 12 hr relative to control; type: functional
[9] = tested on: Leptinotarsa decemlineata; assay: Insecticidal activity against first-instar larval stage of Leptinotarsa decemlineata infested potato leaves assessed as mortality at 20 mg after 48 hr relative to control; type: functional
[10] = tested on: Leptinotarsa decemlineata; assay: Insecticidal activity against third-instar larval stage of Leptinotarsa decemlineata infested potato leaves assessed as mortality at 10 mg after 12 hr relative to control; type: functional
[11] = tested on: Leptinotarsa decemlineata; assay: Insecticidal activity against first-instar larval stage of Leptinotarsa decemlineata infested potato leaves assessed as mortality at 10 mg after 96 hr relative to control; type: functional
[12] = tested on: Leptinotarsa decemlineata; assay: Insecticidal activity against first-instar larval stage of Leptinotarsa decemlineata infested potato leaves assessed as mortality at 10 mg after 12 hr relative to control; type: functional
[13] = tested on: Leptinotarsa decemlineata; assay: Insecticidal activity against first-instar larval stage of Leptinotarsa decemlineata infested potato leaves assessed as mortality at 10 mg after 24 hr relative to control; type: functional
[14] = tested on: Leptinotarsa decemlineata; type: functional, Instar larval stage; remark: listed apart in the source
[15] = tested on: Leptinotarsa decemlineata; assay: Insecticidal activity against first-instar larval stage of Leptinotarsa decemlineata infested potato leaves assessed as mortality at 20 mg after 24 hr relative to control; type: functional
[16] = tested on: Leptinotarsa decemlineata; assay: Insecticidal activity against adult Leptinotarsa decemlineata infested potato leaves assessed as mortality at 10 mg after 12 hr relative to control; type: functional
[17] = tested on: Leptinotarsa decemlineata; type: functional, Instar larval stage; remark: listed apart in the source
[18] = tested on: Leptinotarsa decemlineata; assay: Insecticidal activity against adult Leptinotarsa decemlineata infested potato leaves assessed as mortality at 10 mg after 48 hr relative to control; type: functional
[19] = tested on: Leptinotarsa decemlineata; type: functional, Instar larval stage; remark: listed apart in the source
[20] = tested on: Leptinotarsa decemlineata; assay: Insecticidal activity against adult Leptinotarsa decemlineata infested potato leaves assessed as mortality at 20 mg after 96 hr relative to control; type: functional
[21] = tested on: Leptinotarsa decemlineata; assay: Insecticidal activity against first-instar larval stage of Leptinotarsa decemlineata infested potato leaves assessed as mortality at 10 mg after 48 hr relative to control; type: functional
[22] = tested on: Leptinotarsa decemlineata; assay: Insecticidal activity against adult Leptinotarsa decemlineata infested potato leaves assessed as mortality at 20 mg after 48 hr relative to control; type: functional
[23] = tested on: Leptinotarsa decemlineata; assay: Insecticidal activity against third-instar larval stage of Leptinotarsa decemlineata infested potato leaves assessed as mortality at 10 mg after 24 hr relative to control; type: functional
[24] = tested on: Leptinotarsa decemlineata; assay: Insecticidal activity against adult Leptinotarsa decemlineata infested potato leaves assessed as mortality at 10 mg after 24 hr relative to control; type: functional
[25] = tested on: Leptinotarsa decemlineata; assay: Insecticidal activity against second-instar larval stage of Leptinotarsa decemlineata infested potato leaves assessed as mortality at 10 ul after 12 hr relative to control; type: functional
[26] = tested on: Leptinotarsa decemlineata; assay: Insecticidal activity against adult Leptinotarsa decemlineata infested potato leaves assessed as mortality at 20 ul after 96 hr relative to control; type: functional
[27] = tested on: Leptinotarsa decemlineata; assay: Insecticidal activity against third-instar larval stage of Leptinotarsa decemlineata infested potato leaves assessed as mortality at 10 ul after 24 hr relative to control; type: functional
[28] = tested on: Leptinotarsa decemlineata; assay: Insecticidal activity against adult Leptinotarsa decemlineata infested potato leaves assessed as mortality at 20 ul after 48 hr relative to control; type: functional
[29] = tested on: Leptinotarsa decemlineata; assay: Insecticidal activity against first-instar larval stage of Leptinotarsa decemlineata infested potato leaves assessed as mortality at 10 ul after 48 hr relative to control; type: functional
[30] = tested on: Leptinotarsa decemlineata; assay: Insecticidal activity against first-instar larval stage of Leptinotarsa decemlineata infested potato leaves assessed as mortality at 20 ul after 48 hr relative to control; type: functional
[31] = tested on: Leptinotarsa decemlineata; assay: Insecticidal activity against second-instar larval stage of Leptinotarsa decemlineata infested potato leaves assessed as mortality at 20 ul after 24 hr (reference value: 3.3 +/- 3.3%); type: functional
[32] = tested on: Leptinotarsa decemlineata; assay: Insecticidal activity against adult Leptinotarsa decemlineata infested potato leaves assessed as mortality at 10 ul after 24 hr relative to control; type: functional
[33] = tested on: Leptinotarsa decemlineata; assay: Insecticidal activity against third-instar larval stage of Leptinotarsa decemlineata infested potato leaves assessed as mortality at 20 ul after 96 hr (reference value: 3.3 +/- 3.3%); type: functional
[34] = tested on: Leptinotarsa decemlineata; assay: Insecticidal activity against second-instar larval stage of Leptinotarsa decemlineata infested potato leaves assessed as mortality at 20 ul after 48 hr (reference value: 3.3 +/- 3.3%); type: functional
[35] = tested on: Leptinotarsa decemlineata; assay: Insecticidal activity against first-instar larval stage of Leptinotarsa decemlineata infested potato leaves assessed as mortality at 10 ul after 96 hr relative to control; type: functional
[36] = tested on: Leptinotarsa decemlineata; assay: Insecticidal activity against third-instar larval stage of Leptinotarsa decemlineata infested potato leaves assessed as mortality at 20 ul after 24 hr relative to control; type: functional
[37] = tested on: Leptinotarsa decemlineata; assay: Insecticidal activity against second-instar larval stage of Leptinotarsa decemlineata infested potato leaves assessed as mortality at 10 ul after 24 hr (reference value: 3.3 +/- 3.3%); type: functional
[38] = tested on: Leptinotarsa decemlineata; assay: Insecticidal activity against third-instar larval stage of Leptinotarsa decemlineata infested potato leaves assessed as mortality at 10 ul after 12 hr relative to control; type: functional
[39] = tested on: Leptinotarsa decemlineata; assay: Insecticidal activity against second-instar larval stage of Leptinotarsa decemlineata infested potato leaves assessed as mortality at 20 ul after 12 hr relative to control; type: functional
[40] = tested on: Leptinotarsa decemlineata; assay: Insecticidal activity against second-instar larval stage of Leptinotarsa decemlineata infested potato leaves assessed as mortality at 10 ul after 96 hr (reference value: 3.3 +/- 3.3%); type: functional
[41] = tested on: Leptinotarsa decemlineata; assay: Insecticidal activity against first-instar larval stage of Leptinotarsa decemlineata infested potato leaves assessed as mortality at 10 ul after 12 hr relative to control; type: functional
[42] = tested on: Leptinotarsa decemlineata; assay: Insecticidal activity against adult Leptinotarsa decemlineata infested potato leaves assessed as mortality at 20 ul after 24 hr relative to control; type: functional
[43] = tested on: Leptinotarsa decemlineata; assay: Insecticidal activity against third-instar larval stage of Leptinotarsa decemlineata infested potato leaves assessed as mortality at 20 ul after 48 hr (reference value: 3.3 +/- 3.3%); type: functional
[44] = tested on: Leptinotarsa decemlineata; assay: Insecticidal activity against third-instar larval stage of Leptinotarsa decemlineata infested potato leaves assessed as mortality at 10 ul after 96 hr (reference value: 3.3 +/- 3.3%); type: functional
[45] = tested on: Leptinotarsa decemlineata; assay: Insecticidal activity against adult Leptinotarsa decemlineata infested potato leaves assessed as mortality at 10 ul after 96 hr relative to control; type: functional
[46] = tested on: Leptinotarsa decemlineata; assay: Insecticidal activity against second-instar larval stage of Leptinotarsa decemlineata infested potato leaves assessed as mortality at 20 ul after 96 hr (reference value: 3.3 +/- 3.3%); type: functional
[47] = tested on: Leptinotarsa decemlineata; assay: Insecticidal activity against third-instar larval stage of Leptinotarsa decemlineata infested potato leaves assessed as mortality at 10 ul after 48 hr (reference value: 3.3 +/- 3.3%); type: functional
[48] = tested on: Leptinotarsa decemlineata; assay: Insecticidal activity against second-instar larval stage of Leptinotarsa decemlineata infested potato leaves assessed as mortality at 10 ul after 48 hr (reference value: 3.3 +/- 3.3%); type: functional
[49] = tested on: Leptinotarsa decemlineata; assay: Insecticidal activity against adult Leptinotarsa decemlineata infested potato leaves assessed as mortality at 10 ul after 48 hr relative to control; type: functional
[50] = tested on: Leptinotarsa decemlineata; assay: Insecticidal activity against first-instar larval stage of Leptinotarsa decemlineata infested potato leaves assessed as mortality at 10 ul after 24 hr relative to control; type: functional
[51] = tested on: Leptinotarsa decemlineata; assay: Insecticidal activity against third-instar larval stage of Leptinotarsa decemlineata infested potato leaves assessed as mortality at 20 ul after 12 hr relative to control; type: functional
[52] = tested on: Leptinotarsa decemlineata; assay: Insecticidal activity against adult Leptinotarsa decemlineata infested potato leaves assessed as mortality at 20 ul after 12 hr relative to control; type: functional
[53] = tested on: Leptinotarsa decemlineata; assay: Insecticidal activity against first-instar larval stage of Leptinotarsa decemlineata infested potato leaves assessed as mortality at 20 ul after 96 hr relative to control; type: functional
[54] = tested on: Leptinotarsa decemlineata; assay: Insecticidal activity against first-instar larval stage of Leptinotarsa decemlineata infested potato leaves assessed as mortality at 20 ul after 12 hr relative to control; type: functional
[55] = tested on: Leptinotarsa decemlineata; assay: Insecticidal activity against adult Leptinotarsa decemlineata infested potato leaves assessed as mortality at 10 ul after 12 hr relative to control; type: functional
[56] = tested on: Leptinotarsa decemlineata; assay: Insecticidal activity against first-instar larval stage of Leptinotarsa decemlineata infested potato leaves assessed as mortality at 20 ul after 24 hr relative to control; type: functional

C=C1C2CCC(C2)C1(C)C (stereo unspecified) [CAMPHENE]
mortality [1]: 26.7%
mortality [2]: 43.3%
mortality [3]: 13.3%
mortality [4]: 13.3%
mortality [5]: 16.7%
mortality [6]: 73.3%
mortality [7]: 10%
mortality [8]: 30%
mortality [9]: 23.3%
mortality [10]: 0%
mortality [11]: 10%
mortality [12]: 0%
mortality [13]: 0%
mortality [14]: 6.7%
mortality [15]: 23.3%
mortality [16]: 6.7%
mortality [17]: 46.7%
mortality [18]: 13.3%
mortality [19]: 50%
mortality [20]: 76.7%
mortality [21]: 6.7%
mortality [22]: 76.7%
mortality [23]: 0%
mortality [24]: 13.3%

C=CC(=C)CCC=C(C)C [MYRCENE]
mortality [25]: 56.7%
mortality [26]: 100%
mortality [27]: 53.3%
mortality [28]: 96.7%
mortality [29]: 93.3%
mortality [30]: 100%
mortality [31]: 90%
mortality [32]: 93.3%
mortality [33]: 76.7%
mortality [34]: 100%
mortality [35]: 93.3%
mortality [36]: 70%
mortality [37]: 93.3%
mortality [38]: 26.7%
mortality [39]: 73.3%
mortality [40]: 93.3%
mortality [41]: 20%
mortality [42]: 90%
mortality [43]: 73.3%
mortality [44]: 60%
mortality [45]: 100%
mortality [46]: 100%
mortality [47]: 56.7%
mortality [48]: 93.3%
mortality [49]: 100%
mortality [50]: 80%
mortality [51]: 36.7%
mortality [52]: 73.3%
mortality [53]: 100%
mortality [54]: 36.7%
mortality [55]: 46.7%
mortality [56]: 90%
